Results published in ChEMBL document CHEMBL4118131, “Synthesis of 1,2,4-triazole-linked urea/thiourea conjugates as cytotoxic and apoptosis inducing agents” (Bioorg Med Chem Lett, 2018).

Experiments:
Assay type in all cases: functional, cell-based
[1] = tested on: MCF7; assay: Cytotoxicity in human MCF7 cells assessed as reduction in cell viability incubated for 48 hrs by MTT assay; settings: MCF7, 48 h
[2] = tested on: A549; assay: Cytotoxicity in human A549 cells assessed as reduction in cell viability incubated for 48 hrs by MTT assay; settings: A549, 48 h
[3] = tested on: MDA-MB-231; assay: Cytotoxicity in human MDA-MB-231 cells assessed as reduction in cell viability incubated for 48 hrs by MTT assay; settings: MDA-MB-231, 48 h
[4] = tested on: DU-145; assay: Cytotoxicity in human DU145 cells assessed as reduction in cell viability incubated for 48 hrs by MTT assay; settings: DU-145, 48 h
[5] = tested on: B16-F10; assay: Cytotoxicity in mouse B16/F10 cells assessed as reduction in cell viability incubated for 48 hrs by MTT assay; settings: B16-F10, 48 h

| SMILES | IC50 [1] | IC50 [2] | IC50 [3] | IC50 [4] | IC50 [5] |
| --- | --- | --- | --- | --- | --- |
| COc1ccc(CN(C(=S)Nc2cc(C(F)(F)F)cc(C(F)(F)F)c2)n2cnnc2)cc1OC | 15.5 µM | 16.2 µM | 25.3 µM | 26.4 µM | 8.54 µM |
| N#Cc1ccc(CN(C(=O)Nc2ccccc2)n2cnnc2)cc1 | > 50 µM | > 50 µM | > 50 µM | > 50 µM | 34.7 µM |
| Cc1ccsc1CN(C(=O)Nc1cccc(C#N)c1)n1cnnc1 | > 50 µM | 26 µM | > 50 µM | 31 µM | 28.9 µM |
| O=C(NCc1ccccc1)N(Cc1ccccn1)n1cnnc1 | > 50 µM | 22 µM | > 50 µM | 21.2 µM | 31 µM |
| CC1CCC(NC(=O)N(Cc2ccccn2)n2cnnc2)CC1 (configuration not stated) | 34 µM | 43.7 µM | 33.2 µM | 20.1 µM | 39.7 µM |
| COc1cc(CN(C(=S)Nc2ccc(C)cc2)n2cnnc2)cc(OC)c1OC | > 50 µM | 22.8 µM | > 50 µM | 20.8 µM | 46.8 µM |
| CCc1ccc(NC(=S)N(Cc2cc(OC)c(OC)c(OC)c2)n2cnnc2)cc1 | 24.8 µM | 17.2 µM | 24.8 µM | 21.4 µM | 24.7 µM |
| COc1ccc(OC)c(CN(C(=S)NC2CCCCC2)n2cnnc2)c1 | > 50 µM | 21.5 µM | > 50 µM | 29.8 µM | 39.5 µM |
| COc1ccc(CN(C(=O)Nc2ccc(C#N)cc2)n2cnnc2)cc1OC | > 50 µM | > 50 µM | > 50 µM | 24.1 µM | > 50 µM |
| O=c1[nH]cc(F)c(=O)[nH]1 [FLUOROURACIL] | 16.7 µM | – | – | 39.2 µM | – |
| CCCCCCCCCNC(=S)N(Cc1cc(OC)ccc1OC)n1cnnc1 | > 50 µM | > 50 µM | > 50 µM | > 50 µM | 29.4 µM |
| Cc1ccsc1CN(C(=O)Nc1ccc(Cl)c(C(F)(F)F)c1)n1cnnc1 | 30.1 µM | 26.2 µM | 29.6 µM | 24.1 µM | 22.1 µM |
| COc1cc(CN(C(=O)Nc2ccc(C#N)cc2)n2cnnc2)cc(OC)c1OC | > 50 µM | 20.7 µM | > 50 µM | 20.6 µM | 21 µM |
